For data set [1], the target named is T1, extracellular NAMPT (eNAMPT) (Homo sapiens, UniProt P43490).
T1 construct: degradation effects of compounds SIAIS630120 and SIAIS630121 of the present disclosure on eNAMPT protein in HL60 and MOLT4 cell lines; endogenous in cells; host or cells: HL60, MOLT4
The experiment in a line: Western blot, eNAMPT protein degradation in HL60 and MOLT4 cell lines. Type of data set: cell-based. How it is done: (§1) The tumor cells used herein were cultured in a cell culture medium at 37° C. in an incubator with 5% CO2, where the cell culture medium was supplemented with 10% FBS, as well as penicillin at a final concentration of 100 U/mL and streptomycin at a final concentration of 100 μg/mL.
(§2) Tumor cells were seeded at a specific cell density in a 6-well plate containing 2 mL of RPMI1640/DMEM medium. For SW620, HT29, MCF-7, and BEL7404 cells, the seeding density was 1×10^6 cells per well, respectively; for MOLT4, Jurkat, and HL60 cells, the seeding density was 0.5×10^6 cells/mL. […] After 24 hours of compound treatment, the supernatant was removed, and cells were washed with PBS. The cells were then placed on ice and treated with protein lysis buffer containing protease and phosphatase inhibitors. The lysate was centrifuged at 12,000 RPM for 15 minutes at 4° C., and the supernatant was collected. Equal amounts of protein were mixed with 5×SDS, and after denaturation at 95° C. for 5 minutes, the samples were either frozen at −20° C. or subjected to direct protein electrophoresis. SDS-PAGE was performed using equal amounts of protein, and proteins were transferred to a nitrocellulose membrane at 95 V and 4° C. for 90 minutes. After membrane transfer, the membrane was blocked with TBST containing 5% skim milk powder (purchased from Beijing Cowin Bioscience Co., Ltd.) at room temperature for 1 hour. […]

Data set [2] concerns the target T2, intracellular NAMPT (iNAMPT) (Homo sapiens, UniProt P43490).
T2 construct: assess the expression levels of NAMPT protein in tumor cells treated with the compounds of the present disclosure; endogenous in cells; host or cells: SW620, HT29, MCF-7, BEL7404, MOLT4, Jurkat, HL60
Nature of the data set: Western blot, NAMPT protein degradation (DC50) in SW620, HT29, MCF-7, BEL7404, MOLT4, Jurkat and HL60 cells. Type of data set: cell-based. As to conditions: tumor cells, 24 h. How it is done: as §1, §2
Background: A western blot detects proteins with antibodies after separation by electrophoresis.

Data set [3] has as its system hematological tumors. The following applies: animal models; cited from earlier work.
For data set [4], the system named is Jurkat. The experiment in a line: CellTiter-Glo Luminescent Cell Viability Assay, half inhibitory concentration (IC50) on tumor cell proliferation. The data set is classed as cell-based. As to conditions: Homo sapiens, Jurkat cells, 72 h treatment. Put shortly: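 Jurkat cells seeded at 20,000 cells/well in serum-containing RPMI1640, treated after 24 h with serially diluted compound for 72 h at 37 °C, 5% CO2. Viability read by CellTiter-Glo luminescence; IC50 calculated from growth-inhibition curves.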
On the technique in general: Cellular ATP, detected with luciferase, serves as a proxy for viable cell number.

Data set [5] relates to HL60 tumor cells. The experiment in a line: In vitro cytotoxicity assay against tumor cells (DAPI staining, flow cytometry). The following applies: 10 nM, 4th day. The data set is classed as cell-based. How it is done:
(§3) The tumor cells used herein were cultured in a cell culture medium at 37° C. in an incubator with 5% CO2, where the cell culture medium was supplemented with 10% FBS, as well as penicillin at a final concentration of 100 U/mL and streptomycin at a final concentration of 100 μg/mL. Prior to experimentation, all cells used were identified as correct cells by STR cells, and were negative for mycoplasma through routine testing.
(§4) MOLT4 and HL60 tumor cells were seeded separately in 12-well plates containing 1 mL of RPMI1640 medium, with a cell seeding density of 0.5×10^6 cells/mL. On the second day, the parent inhibitor FK866 and the compounds SIAIS630120 and SIAIS630121 of the present disclosure were individually dissolved in DMSO to obtain stock solutions of the respective compounds at a concentration of 10 μM. Subsequently, 1 μL of the 10 μM compound stock solution was added to 1 mL of cell culture medium to achieve a final concentration of 10 nM. The cells were treated continuously for 4 days, and cell viability was measured once daily during this period. Specifically, cells were sampled once a day, adjusted to a concentration of 1×10^6/mL using a cell staining buffer, stained with 4′,6-diamidino-2-phenylindole dihydrochloride (DAPI) (1:250), and then analyzed with a flow cytometer. Initially, the cells were gated based on differences in cell size, followed by DAPI staining to gate for dead cells. Finally, the cytotoxic efficiency was assessed by calculating the DAPI-positive ratio.
For orientation: A flow cytometer gives signals particle by particle.

For data set [6] the following is noted: clinical trial results; cited from earlier work.
For data set [7], the system named is MOLT4 tumor cells. Nature of the data set: In vitro cytotoxicity assay against tumor cells (DAPI staining, flow cytometry). Type of data set: cell-based. As to conditions: 10 nM, 4th day; for cytotoxicity, more effective than FK866: difference to FK866. How it is done:
as §3, §4

Data on 3 molecules can be found in patent US20250144223A1, “PROTEIN DEGRADATION COMPOUND BASED ON NAMPT TARGET PROTEIN AND APPLICATION THEREOF” (GLUETACS THERAPEUTICS (SHANGHAI) CO., LTD., priority 2021, published 2025).

Usually IC50 stands for the concentration at which inhibition is half-maximal.

T1 sequence (P43490 whole entry): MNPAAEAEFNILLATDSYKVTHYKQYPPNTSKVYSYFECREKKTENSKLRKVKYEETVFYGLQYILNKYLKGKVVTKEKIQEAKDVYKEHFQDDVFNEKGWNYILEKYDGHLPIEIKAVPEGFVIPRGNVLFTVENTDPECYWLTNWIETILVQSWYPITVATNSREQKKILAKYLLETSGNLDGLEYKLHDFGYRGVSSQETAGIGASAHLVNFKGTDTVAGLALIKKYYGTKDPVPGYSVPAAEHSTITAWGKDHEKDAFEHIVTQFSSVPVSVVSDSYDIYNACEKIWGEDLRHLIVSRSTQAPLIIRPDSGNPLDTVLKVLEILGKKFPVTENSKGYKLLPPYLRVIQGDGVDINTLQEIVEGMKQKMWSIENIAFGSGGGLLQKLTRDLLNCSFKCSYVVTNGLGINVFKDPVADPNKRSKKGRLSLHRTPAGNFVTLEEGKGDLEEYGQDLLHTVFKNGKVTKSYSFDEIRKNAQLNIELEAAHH
T2 sequence (P43490 whole entry): as above

Regarding `O=C(/C=C/c1cccnc1)NCCCCC1CCN(C(=O)c2ccccc2)CC1` [FK866], the “degradation of extracellular NAMPT (eNAMPT) protein” value in data set [1] (24 h, Western blot) is “cannot degrade iNAMPT and eNAMPT proteins”. In data set [1] (MOLT4 cells, 10 nM, FIG. 5), the “eNAMPT protein level compared to the DMSO control group” value is “higher levels of eNAMPT protein”. The “degradation of intracellular NAMPT (iNAMPT) protein” value in data set [2] is “cannot degrade iNAMPT and eNAMPT proteins”. Moreover, in data set [3], the “long-term survival of mice” value is reported as 80%. This molecule returned an IC50 in data set [4] of 0.635 nM. Further, in data set [5], the “cytotoxic effect (DAPI-positive ratio)” value is “less than 40%”. For the same molecule, in data set [6], the “toxicities in clinical trial” value is listed as “dose-limiting toxicities such as thrombocytopenia”.

`O=C(/C=C/c1cccnc1)NCCCCC1CCN(C(=O)c2ccc(N3CCN(CCCCCC#Cc4cccc5c4CN(C4CCC(=O)NC4=O)C5=O)CC3)cc2)CC1` (stereo not drawn) [SIAIS630120, (E)-N-(4-(1-(4-(4-(7-(2-(2,6-dioxopiperidin-3-yl)-1-oxoisoindolin-4-yl)hept-6-yn-1-yl)piperazin-1-yl)benzoyl)piperidin-4-yl)butyl)-3-(pyridin-3-yl)acrylamide] had a 50% inhibitory concentration (IC50) in data set [4] of 6.24 nM. In addition, the “cytotoxic effect (DAPI-positive ratio)” value in data set [5] was determined as 95%. In addition, in data set [7], the “cytotoxicity (DAPI-positive ratio)” value is “approximately 50%” and the “cytotoxicity, more effective than FK866” value is on record as 20%.

As to `O=C(/C=C/c1cccnc1)NCCCCC1CCN(C(=O)c2ccc(N3CCN(CCCCCCC#Cc4cccc5c4CN(C4CCC(=O)NC4=O)C5=O)CC3)cc2)CC1` (stereo not drawn) [SIAIS630121, (E)-N-(4-(1-(4-(4-(8-(2-(2,6-dioxopiperidin-3-yl)-1-oxoisoindolin-4-yl)oct-7-yn-1-yl)piperazin-1-yl)benzoyl)piperidin-4-yl)butyl)-3-(pyridin-3-yl)acrylamide], 4.83 nM corresponded to half-maximal inhibition in data set [4] (IC50). Also, the “cytotoxic effect (DAPI-positive ratio)” value in data set [5] stood at 95%. Besides, in data set [7], the “cytotoxicity (DAPI-positive ratio)” value is “approximately 50%” and the “cytotoxicity, more effective than FK866” value was 20%.
